These results are taken from patent publication US20070191402A1, “Method of searching substrate having antidiabetic activity” (KYOWA HAKKO KOGYO CO., LTD., priority 2002, published 2007).

One assay deals with T1, His-p31 protein (Mus musculus, UniProt Q99LB2).
T1 construct: a gene part encoding the full-length p31 protein was prepared by polymerase chain reaction (PCR); made in house; host or cells: Escherichia coli BL21 / pET-14b-p31
T1 sequence (Q99LB2 20-279 limits assumed): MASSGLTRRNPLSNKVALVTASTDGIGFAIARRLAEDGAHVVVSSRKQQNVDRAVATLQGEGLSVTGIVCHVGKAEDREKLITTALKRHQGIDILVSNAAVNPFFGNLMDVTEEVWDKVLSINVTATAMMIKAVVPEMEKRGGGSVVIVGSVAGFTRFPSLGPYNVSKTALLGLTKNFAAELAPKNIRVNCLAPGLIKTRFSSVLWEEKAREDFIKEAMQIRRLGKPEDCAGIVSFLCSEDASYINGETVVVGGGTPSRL
The assay can be described thus: Enzyme activity inhibition of His-p31 protein (NADPH decrease, p-chlorobenzaldehyde). Type of assay: biochemical. As to conditions: p-chlorobenzaldehyde 250 μmol/l, NADPH 5 μmol/l, 37° C., absorbance at 340 nm. On the procedure:
NADPH was added to 1 ml of a solution of 10 mmol/Tris-HCl, 100 mmol/l NaCl and 2 mmol/l EDTA, pH 7.4 containing the His-p31 protein prepared in Example 12 at 1 μg/ml and p-chlorobenzaldehyde at 250 μmol/l to give a final concentration of 5 μmol/l and incubated at 37° C. Then, the NADPH decrease following the decomposition of p-chlorobenzaldehyde in the presence or absence of a tested substance was detected at the absorbance at 340 nm.

For assay [1], the system named is pancreatic β cell (MIN6 cell). Kind of assay: Inhibition of binding of [3H]-labeled Compound 16 to pancreatic β cell. Further details: species or system murine. Conditions: test compound 1 μmol/l; 10 nmol/l [3H]-labeled Compound 16; MIN6 cell, 4° C. On the procedure: MIN6 cell cultured to almost confluence in a 24-well plate for cell culture (manufactured by Corning) was washed twice with KRH buffer (119 mmol/l NaCl, 4.74 mmol/KCl, 2.54 mmol/l calcium chloride (CaCl2), 1.19 mmol/l magnesium sulfate (MgSO4), 1.19 mmol/l potassium dihydrogen phosphate (KH2PO4), 10 mmol/l HEPES, 2 mmol/l glucose, 0.1 w/v % bovine serum albumin (BSA), pH 7.3). Subsequently, the KRH buffer was added at 1 ml per well, for preincubation at 37° C. for 45 minutes. After preincubation, the supernatant was discarded, and 0.15 ml of the KRH buffer, […] at 4° C. for one hour or longer until the reaction reached equilibrium. Subsequently, the cell was washed twice using the KRH buffer. The KRH buffer was added at 2 ml per well, which was then left to stand at room temperature for 20 minutes. The cell was again washed twice by using the KRH buffer. The radioactivity remaining in each well was counted with a liquid scintillation counter to determine the binding amount.
The difference between the binding amount of the [^3H]-labeled Compound 16 (total binding amount) under conditions with no addition of any test compound and the binding amount of the [^3H]-labeled Compound 16 (non-specific binding amount) under conditions in the presence of the Compound 16 at 10 μmol/l was defined as specific binding amount.
According to the method described in Example 5, a substance having anti-diabetic activity was screened for, using the inhibitory activity of the binding between pancreatic β cells and [^3H]-labeled Compound 16. A tested substance was dissolved in dimethylsulfoxide and then added to give a final concentration of 1 μmol/l. The radioactivity with addition of the unlabeled Compound 16 was defined as the non-specific binding amount and the radioactivity without addition of the unlabeled Compound 16 was defined as the total binding amount, and then the individual specific binding amounts were calculated by the method described in Example 6. Using the following formula, the binding inhibition ratio was determined. [formula]

On to `CCCN1C(=O)N2C[C@@H](Cc3ccccc3)N=C2c2[nH]c(C3CCCC3)nc21` [compound 16], for which, on His-p31 protein, the “enzyme activity inhibition of the His-p31 protein” value is “strongly inhibited the activity of the protein”. Moreover, the “Binding inhibitory activity (%)” value in assay [1] is listed as 100.0%.
